# Test results as given in PMC6085350, “Small molecule inhibitors of RAS-effector protein interactions derived using an intracellular antibody fragment” (Nature Communications, 2018).
# Experiments:
# [1] = target: T1, HRASG12V-GTPγS (Homo sapiens, UniProt P01112, G12V); assay: waterLOGSY NMR titration for Kd; assay type: binding
# T1 construct: expression of HRAS (1-166) HRAS^G12V or KRAS^G12V cDNA cloned into the pGEX-2T vector; GST (N); made in house; host or cells: E. coli C41(DE3)
# Description: The waterLOGSY NMR method[35] was used to measure RAS ligand interaction. WaterLOGSY experiments were conducted at a ^1H frequency of 600 MHz using a Bruker Avance spectrometer equipped with a BBI probe. All experiments were conducted at 298 K, 3 mm diameter NMR tubes with a sample final volume of 200 µl was used in all experiments. Solutions were buffered using an H2O 10 mM PBS, 5 mM MgCl2 buffer corrected to pH 7.4. The sample preparation is exemplified as follows, the compound (10 µl of a […] solution in DMSO-d6) was added to an eppendorf before sequential addition of the H2O PBS buffer (163.6 µl), D2O (20 µl), and protein (6.4 µl, 311.8 µM). The resulting solution was spun to ensure full mixing and transferred to a 3 mm NMR tube before running the experiment. […]
# NMR spectra from the Abd-2 titration ranging from 50 to 400μM compound. The dissociation constant of Abd-2 binding to HRASG12V-GTPγS was determined from the curve generated by plotting the reduction of the NMR signal from a selected peak (depicted in green) during the compound titration against the protein. […]
# [2] = Solubility; assay type: physicochemical
# [3] = system: AKT phosphorylation (Ser473) in DLD-1 cells (KRAS^G13D); assay: Biomarker phosphorylation assay, pAKT, DLD-1; assay type: cell-based, human; details: EGF 10 min
# Description: (§1) Fig. 5 Abd-7 results on RAS-dependent signalling pathways and cell viability. a, b DLD-1 (a) or H358 (b) cells were serum-starved for 24 h, incubated in mono-layer with Abd-7 in a range from 2, 5, 10 and 20 μM for 3 h and stimulated with EGF 10 min. Proteins were extracted and separated by SDS-PAGE and transferred to membranes for Western analysis with anti-pAKT, anti-pERK, anti-pan AKT and anti-pan ERK. Anti-cyclophilin B antibody was the loading control. Signal was developed using standard ECL. c–e Effects of compounds Abd-2, Abd-4, Abd-5, Abd-6, and Abd-7 on the viability of human cancer cells lines was assessed for a 2-D culture of DLD-1 (mutant KRAS^G13D) cells and HT1080 cells (mutant NRAS^Q61K). The cells were treated with a dose range from 0 μM to 20 μ and incubated for 72 h when cell viability was assessed using CellTitreGlo. […] Each experiment was repeated at least three times (a, b) and four times (c, d). Where error bars are presented, they correspond to mean values ± SD of biological repeats
# A total of 450,000 DLD1 or 640,000 H358 cells were seeded per well of a six well plate. Approximately, 20 h later, the medium was removed, the cells washed twice with PBS and DMEM without FBS was added and left for 24 h. The medium was removed and 2 ml of DMEM no FBS was added with the appropriate concentration of compound (DMSO, 2, 5, 10 or 20 μM) for 3 h. Cells were stimulated with EGF (50 ng/ml) for 10 min, washed once with PBS and directly lysed in SDS-Tris buffer (1% SDS, 10 mM Tris-HCl pH 7.4) supplemented with protease inhibitors (Sigma) and phosphatase inhibitors (Thermo-Fisher). Cell lysates were sonicated with a Branson Sonifier and the protein concentrations determined by using the Pierce BCA protein assay kit (Thermo-Fisher). Furthermore, 10 μg of protein were resolved on 10 or 12.5% SDS-PAGE and subsequently transferred onto a PVDF membrane (GE). The membrane was blocked (with 10% non-fat milk (Sigma) or 10% BSA (Sigma) in TBS-0.1% Tween20) and incubated overnight with primary antibody at 4 °C. […]
# [4] = system: ERK1/2 phosphorylation in DLD-1 cells (KRAS^G13D); assay: Biomarker phosphorylation assay, pERK, DLD-1; assay type: cell-based, human; details: DLD-1, 2-20 μM, 3 h, EGF 10 min
# Description: as §1
# A total of 450,000 DLD1 or 640,000 H358 cells were seeded per well of a six well plate. Approximately, 20 h later, the medium was removed, the cells washed twice with PBS and DMEM without FBS was added and left for 24 h. […] Cell lysates were sonicated with a Branson Sonifier and the protein concentrations determined by using the Pierce BCA protein assay kit (Thermo-Fisher). […]
# [5] = target: PI3KC2; assay: Kinase panel (KinaseProfiler), first PI3KC2 line; assay type: biochemical, human; details: PI3KC2 (first of two lines), 10μM
# Description: Experiments were performed by Eurofins Pharma Discovery Services. The KinaseProfiler™ assay protocol guide can be downloaded from their website: www.eurofins.com/discoveryservices. The guide contains information on the buffer conditions, substrate and reference inhibitor blank used for each kinase.
# Supplementary Table 3. Assessment of potential interaction of Abd-7 with a human kinase
# Kinase % kinase activity in
# A panel of 14 Kinases (relevant to the RAS pathway) has been screened against Abd-7
# (10μM) and the kinase activity was measured. […] of activity was observe for all
# function of the selected and RAS relevant kinase proteins.
ligand efficiency [1],"Kd ([1]; waterLOGSY titration 50 to 400 μM compound, single experimental analysis, read-out: Kd (dissociation constant))",solubility [2],% kinase activity in the presence of Abd-7 [5],SMILES,"inhibition of AKT phosphorylation ([3]; DLD-1, 20 μM, 3 h)","concentration at which inhibition of AKT phosphorylation initiates ([3]; DLD-1, starved 24 h, 3 h compound, Western)","inhibition at 10 µM ([3]; Homo sapiens, DLD-1, 10 μM, 3 h)",inhibition of ERK1/2 phosphorylation [4]
0.26,235 µM,446 µM,–,O=C(NCC1COc2ccccc2O1)c1ccco1 (centres unmarked) [Abd-2],–,–,–,–
–,–,–,102%,COc1nc(-c2cccc3c2OCCO3)ccc1Nc1ccc(CN(C)C)cc1 [Abd-7],complete inhibition,2 µM,> 50%,diminution of pERK levels
